Data taken from ChEMBL document CHEMBL5143555, “Potentiating the intracellular killing of Staphylococcus aureus by dihydroquinazoline analogues as NorA efflux pump inhibitor” (Bioorg Med Chem, 2022).
≈ marks a conversion by molar mass, not a printed value. Calls of active or inactive are those of the source. The calls are words filed in the database; no cut-off is given here.

Assays:
[1] = molecular target: T1, Quinolone resistance protein NorA (Staphylococcus aureus) (UniProt P0A0J7); assay: Inhibition of NorA in Staphylococcus aureus 1199B assessed as accumulation of norfloxacin at 3.9 ug/ml by measuring fluorescence intensity measured at 5 mins interval for 40 mins by fluorescence spectrophotometry; details: dose 3.9 µg/ml
T1 sequence (whole entry): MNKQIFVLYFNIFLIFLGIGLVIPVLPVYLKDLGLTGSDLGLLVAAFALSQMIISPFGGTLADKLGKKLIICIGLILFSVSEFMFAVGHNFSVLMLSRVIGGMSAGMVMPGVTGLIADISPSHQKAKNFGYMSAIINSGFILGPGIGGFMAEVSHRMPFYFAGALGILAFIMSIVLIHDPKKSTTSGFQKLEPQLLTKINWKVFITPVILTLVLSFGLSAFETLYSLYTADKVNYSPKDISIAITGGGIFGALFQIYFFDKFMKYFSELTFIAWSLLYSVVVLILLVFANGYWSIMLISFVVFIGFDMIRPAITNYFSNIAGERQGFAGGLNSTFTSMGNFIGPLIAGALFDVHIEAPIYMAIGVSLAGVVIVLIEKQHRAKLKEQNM

Staphylococcus aureus [2] = assay: Antibacterial activity against Staphylococcus aureus 1199B measured after 24 hrs by Muller Hinton broth based MTT assay; assay type: functional
Staphylococcus aureus [3] = assay: Antibacterial activity against Staphylococcus aureus 1199 measured after 24 hrs by Muller Hinton broth based MTT assay; assay type: functional
Staphylococcus aureus [4] = assay: Antibacterial activity against Staphylococcus aureus K1758 measured after 24 hrs by Muller Hinton broth based MTT assay; assay type: functional
[5] = molecular target: T1, Quinolone resistance protein NorA (Staphylococcus aureus); assay: Inhibition of NorA in Staphylococcus aureus 1199B assessed as potentiation of norfloxacin-induced antibacterial activity by measuring Norfloxacin MIC at sub MIC
[6] = molecular target: T1, Quinolone resistance protein NorA (Staphylococcus aureus); assay: Inhibition of NorA in Staphylococcus aureus 1199B assessed as potentiation of norfloxacin-induced antibacterial activity by measuring Norfloxacin MIC at sub MIC relative to norfloxacin MIC alone
[7] = molecular target: T1, Quinolone resistance protein NorA (Staphylococcus aureus); assay: Inhibition of NorA in Staphylococcus aureus 1199B assessed as potentiation of norfloxacin-induced antibacterial activity by measuring fractional inhibitory concentration
[8] = molecular target: T1, Quinolone resistance protein NorA (Staphylococcus aureus); assay: Inhibition of NorA in Staphylococcus aureus 1199B assessed as potentiation of ethidium bromide-induced antibacterial activity by measuring ethidium bromide MIC at sub MIC
[9] = molecular target: T1, Quinolone resistance protein NorA (Staphylococcus aureus); assay: Inhibition of NorA in Staphylococcus aureus 1199B assessed as potentiation of ethidium bromide-induced antibacterial activity by measuring ethidium bromide MIC at sub MIC relative to ethidium bromide MIC alone
[10] = molecular target: T1, Quinolone resistance protein NorA (Staphylococcus aureus); assay: Inhibition of NorA in Staphylococcus aureus 1199B assessed as potentiation of ethidium bromide-induced antibacterial activity by measuring fractional inhibitory concentration
[11] = molecular target: T1, Quinolone resistance protein NorA (Staphylococcus aureus); assay: Inhibition of NorA in Staphylococcus aureus 1199B assessed as potentiation of 3.1 ug/mL norfloxacin-induced bactericidal activity by measuring log reduction in bacterial count at 7.8 ug/mL measured after 8 hrs by time-kill kinetics assay; details: dose 7.8 µg/ml
[12] = molecular target: T1, Quinolone resistance protein NorA (Staphylococcus aureus); assay: Inhibition of NorA in Staphylococcus aureus 1199B assessed as potentiation of ethidium bromide-induced bactericidal activity at 15.6 ug/ml measured within 8 hrs by time-kill kinetics assay; details: dose 15.6 µg/ml
[13] = Cytotoxicity against kidney epithelial cells (unknown origin) assessed as cell viability at 50 ug/mL measured after 24 hrs by alamar blue assay relative to control; assay type: toxicity, cell-based, Fetal kidney cell; details: at 50 µg/mL, read-out: Activity
[14] = molecular target: T1, Quinolone resistance protein NorA (Staphylococcus aureus); assay: Inhibition of NorA in Staphylococcus aureus 1199B assessed as potentiation of norfloxacin-induced morphological changes by measuring appearance of rough and dented cell at sub MIC by field emission scanning electron microscopy
[15] = molecular target: T1, Quinolone resistance protein NorA (Staphylococcus aureus); assay: Inhibition of NorA in Staphylococcus aureus 1199B assessed as accumulation of ethidium bromide at 3.9 ug/ml by measuring fluorescence intensity measured at 5 mins interval for 40 mins by fluorescence spectrophotometry; details: dose 3.9 µg/ml
Staphylococcus aureus [16] = assay: Down regulation of NorA gene expression in Staphylococcus aureus 1199B at 3.9 ug/ml measured after 2 hrs by qRT-PCR analysis; assay type: functional; details: dose 3.9 µg/ml
Staphylococcus aureus [17] = assay: Down regulation of NorA gene expression in Staphylococcus aureus 1199B at 3.1 ug/ml measured after 2 hrs by qRT-PCR analysis relative to control; assay type: functional; details: dose 3.1 µg/ml
Staphylococcus aureus [18] = assay: Down regulation of NorA gene expression in Staphylococcus aureus 1199B at 3.1 ug/ml measured after 2 hrs in presence of norfloxacin by qRT-PCR analysis relative to norfloxacin; assay type: functional; details: dose 3.1 µg/ml
[19] = molecular target: T1, Quinolone resistance protein NorA (Staphylococcus aureus); assay: Inhibition of NorA in Staphylococcus aureus 1199B infected human THP-1 cells assessed as potentiation of norfloxacin-induced bactericidal activity by measuring reduction in bacterial count at modulatory concentration measured after 24 hrs; assay type: cell-based
[20] = molecular target: T1, Quinolone resistance protein NorA (Staphylococcus aureus); assay: Inhibition of NorA in Staphylococcus aureus 1199B infected human THP-1 cells assessed as potentiation of norfloxacin-induced bactericidal activity by measuring reduction in bacterial count at modulatory concentration measured after 24 hrs relative to control; assay type: cell-based
[21] = molecular target: T1, Quinolone resistance protein NorA (Staphylococcus aureus); assay: Inhibition of NorA in Staphylococcus aureus 1199B infected human THP-1 cells assessed as potentiation of norfloxacin-induced bactericidal activity by measuring reduction in intracellular invasion at modulatory concentration measured after 24 hrs; assay type: cell-based
[22] = molecular target: T1, Quinolone resistance protein NorA (Staphylococcus aureus); assay: Inhibition of NorA in Staphylococcus aureus 1199B infected human THP-1 cells assessed as potentiation of norfloxacin-induced bactericidal activity by measuring reduction in intracellular proliferation at modulatory concentration measured after 24 hrs; assay type: cell-based
[23] = molecular target: T1, Quinolone resistance protein NorA (Staphylococcus aureus); assay: Inhibition of NorA in Staphylococcus aureus 1199B infected human THP-1 cells assessed as potentiation of 6.2 ug/ml norfloxacin-induced bactericidal activity by measuring log reduction in bacterial count at 15.6 ug/ml measured after 24 hrs relative to control; assay type: cell-based; details: dose 15.6 µg/ml
[24] = molecular target: T1, Quinolone resistance protein NorA (Staphylococcus aureus); assay: Inhibition of NorA in Staphylococcus aureus 1199B infected human THP-1 cells assessed as potentiation of norfloxacin-induced bactericidal activity by measuring log reduction in bacterial count measured after 24 hrs relative to vancomycin; assay type: cell-based
[25] = molecular target: T1, Quinolone resistance protein NorA (Staphylococcus aureus); assay: Inhibition of NorA in Staphylococcus aureus 1199B assessed as potentiation of 3.1 ug/mL norfloxacin-induced bactericidal activity by measuring log reduction in bacterial count at 7.8 ug/mL measured after 24 hrs by time-kill kinetics assay; details: dose 7.8 µg/ml
[26] = molecular target: T1, Quinolone resistance protein NorA (Staphylococcus aureus); assay: Inhibition of NorA in Staphylococcus aureus 1199B assessed as potentiation of ethidium bromide-induced bactericidal activity at 7.8 ug/ml measured after 24 hrs by time-kill kinetics assay; details: dose 7.8 µg/ml
[27] = molecular target: T1, Quinolone resistance protein NorA (Staphylococcus aureus); assay: Inhibition of NorA in Staphylococcus aureus 1199B assessed as accumulation of norfloxacin at 3.9 ug/ml measured at 5 mins interval for 40 mins by fluorescence spectrophotometry; details: dose 3.9 µg/ml
[28] = molecular target: T1, Quinolone resistance protein NorA (Staphylococcus aureus); assay: Inhibition of NorA in Staphylococcus aureus 1199B assessed as accumulation of norfloxacin at 2.5 ug/ml by measuring fluorescence intensity measured at 5 mins interval for 40 mins by fluorescence spectrophotometry; details: dose 2.5 µg/ml
[29] = molecular target: T1, Quinolone resistance protein NorA (Staphylococcus aureus); assay: Inhibition of NorA in Staphylococcus aureus 1199B assessed as accumulation of ethidium bromide at 2.5 ug/ml by measuring fluorescence intensity measured at 5 mins interval for 40 mins by fluorescence spectrophotometry; details: dose 2.5 µg/ml

SMILES	MIC (Staphylococcus aureus [2]) [µg/mL]	MIC (Staphylococcus aureus [3]) [µg/mL]	MIC (Staphylococcus aureus [4]) [µg/mL]	MIC [5] [µg/mL]	fold change (FC) [6]	fractional inhibitory concentration index (FICI) [7]	MIC [8] [µg/mL]	fold change (FC) [9]	fractional inhibitory concentration index (FICI) [10]	viability at 24 h, 50 ug/mL [13] [%]	Flu intensity [15]	further results
C=CCOc1ccc(C2N=C(c3ccccc3)c3cc(Cl)ccc3N2C)cc1 (configuration not stated)	500 (≈ 1290 µM)	125 (≈ 321 µM)	31.2 (≈ 80.2 µM)	6.2	8	0.141	12.5	4	0.281	94.8	173	Flu intensity [1]: 15400; Activity [11]: > 3 log10CFU/ml; inhibition [12]: Active; inhibition [14]: Active; Activity (Staphylococcus aureus [16]): Active; fold change (FC) (Staphylococcus aureus [17]): 8; fold change (FC) (Staphylococcus aureus [18]): 9; Activity [19]: 4.25 log10CFU/ml; fold change (FC) [20]: 4; inhibition [21]: Active; inhibition [22]: Active; FC [23]: 5; FC [24]: 3
COc1ccc(C2N=C(c3ccccc3)c3ccccc3N2)cc1OC (configuration not stated)	500 (≈ 1450 µM)	125 (≈ 363 µM)	250 (≈ 726 µM)	3.1	16	0.078	6.2	8	0.141	83.7	86	Activity [25]: > 3 log10CFU/ml; inhibition [26]: Active; inhibition [27]: Active
N#CC(C#N)=NNc1cccc(Cl)c1 [CARBONYL CYANIDE M-CHLOROPHENYLHYDRAZONE]	20 (≈ 97.7 µM)	–	–	6.2	8	0.625	3.1	16	0.562	–	–	Flu intensity [28]: 695; Flu intensity [29]: 149
